System: IL-1-induced proteoglycan degradation in bovine nasal cartilage
Assay: Bovine Nasal Cartilage (BNC) assay: inhibition of IL-1-induced proteoglycan degradation (chondroitin sulfate release, 1,9-DMB)
Assay type: cell-based
Settings: Bos taurus, bovine nasal cartilage explants, IL-1β (500 U); for IC50: 48 h with compound + 24 h fresh media, dose responses 10, 1, 0.1 μM
Text: The BNC (bovine nasal cartilage) assay provides a model for evaluating chrondroprotective compounds that block cartilage degradation through inhibition of enzyme activity or by altering the gene expression of the matrix metalloproteinase stromelysin.
Bovine nasal cartilage is obtained from a local slaughter house (Milan, Mich.); cell culture reagents from Gibco (Grand Island, N.Y.); human recombinant Interleukin-1β (IL-1β) from Boehringer Mannheim (Indianapolis, Ind.); DMB from Polysciences (Warrington, Pa.); Falcon 24 well flat-bottom tissue culture plates from Becton Dickinson (Lincoln Park, N.J.); disposable 20-mL scintillation vials from Kimble Glass (Vinland, N.J.); Papain from Sigma (P-3125, St. Louis, Miss.); high purity dimethyl sulfoxide from Burdic & Jackson (081-1, Distributed by Baxter Healthcare, McGraw Park, Ill.); Sarstedt vials for radioimmune assays (Sarstedt, Newton, N.C.); Sarstedt 96-vial aluminum racks (Sarstedt, Newton, N. C.); Cetus Pro/Pette (Perkin Elmer, Norwalk, Conn.).
The assay is accomplished in two phases. The cartilage plugs are first incubated with IL-1 in the presence of compounds. The amount of proteoglycan released is then quantified by measuring chondroitin sulfate present in the media using the 1,9-Dimethylmethylene Blue Assay.
Cartilage Culture. Bovine nasal septum is dissected free of surrounding tissue and wiped with 70% alcohol. A sterile cork borer is used to remove 5-mm cartilage disks of 2 to 3 mm thickness. Explants are equilibrated for 96 hours in F-12 supplemented with 10% fetal calf serum (FCS) and antibiotics at 37° C. in a humidified atmosphere of 95% air and 5% CO2. Explants are then rinsed with 1 mL F-12 Nutrient Mixture (without phenol red) in order to remove traces of FCS. Each treatment group is done in triplicate allowing: controls (500 μL F-12 medium + 110 μL PBS with 0.1% BSA + 7 μL DMSO); IL-1β (500 μL F-12 medium without phenol red + 100 μL IL-1β (500 U) + 7 μL DMSO + 10 μL PBS with 0.1 % BSA); and dose responses (10, 1, and 0.1 μM) (F-12 medium without phenol red + 100 μL IL-1β (500 U) + 7 μL compound dissolved in DMSO + 10 μL PBS with 0.1% BSA), to be tested per each 24-well plate. The cartilage plugs are incubated in the presence of conditioned media (IL-1β + compound) for 48 hours. […]
Quantitation of Cartilage Degradation. The ability of a compound to inhibit proteoglycan released from the cartilage plugs is quantified by measuring chondroitin sulfate. […] This color change is measured using a Titertek Multiscan MCC 340 plate reader at 540 nm. […] It is necessary to dilute (1:5, 1:10) the medium before a […] is performed by adding 10 μL of collected media to 290 μL DMF (16 mg dye/1 L of 0.1M formate buffer, pH 3.5, containing 5 mL ethanol) and reading […]. […]

Structure (SMILES) | IC50 [nM] | further results
Cc1ccc(Cl)c(Nc2ccccc2/C=C2\CCOC2=O)c1Cl [Example 1, (E)-3-[[2-[(2,6-Dichloro-3-methylphenyl)amino]phenyl]methylene]4,5-dihydro-2(3H)-furanone] | 390 | –
Cc1ccc(Cl)c(Nc2ccccc2/C=C2\CCOC2=S)c1Cl [Example 2, (E)-3-[[2-[(2,6-Dichloro-3-methylphenyl)amino]phenyl]methylene]-4,5-dihydro-2(3H) -furanthione] | – | inhibition at 10 µM (@ 10.0 μM, read-out: Percent Inhibition @ μM): > 50%
O=C1OCC/C1=C\c1ccccc1Nc1cccc(C(F)(F)F)c1 [Example 3, (E)-4,5-Dihydro-3-[[2-[[3-(trifluoromethyl)phenyl]-amino]phenyl]methylene]-2(3H)-furanone] | 520 | –
O=C1OCC/C1=C\c1ccccc1Nc1ccccc1 [Example 4, (E)-4,5-Dihydro-3-[[2-(phenylamino)phenyl]methylene]2(3H) -furanone] | – | inhibition at 0.1 µM (@ 0.10 μM, read-out: Percent Inhibition @ μM): 70%

Source: patent publication US5358964A, “Benzylidene-lactone and their thiocarbonyl analogs as inhibitors of proteoglycan degradation” (Warner-Lambert Company, priority 1993, dated 1994)
